Measured values taken from patent US20030092760A1, “Therapeutic agent for renal failure” (Toray Industries, Inc., priority 2001, published 2003).

Tests used:
[1] = system: ⅚ nephrectomized rat model; assay: Effect on ⅚ nephrectomized rat model: renal functions; type: in vivo, Wistar rats
Method: The effect of beraprost sodium on a ⅚ nephrectomized rat model, which has been widely used as a model animal for renal failure, was examined. Two-thirds of the left kidney was removed from each of 4-week-old male Wistar rats (Charles River Japan Inc.) with a razor, and all of the right kidney was then removed therefrom one week after. Three weeks after the initial surgery, blood was collected from each rat through the tail vein and serum creatinine and BUN levels were determined from the blood. At this point of time, the urine was also collected for 24 hours to determine the mass of proteins in the urine. The rats were allocated to one of the treatment groups by the stratifying continuous randomization method based on the mass of proteins in the urine and the body weight (n=8 per group). […] Three weeks after the initial surgery, beraprost sodium or captopril (SIGMA, i.e., a positive control) was orally administered to each rat twice a day everyday, beginning the day on which administration of a drug was started and continued through five weeks after the administration. The determination of the renal functions was performed both three weeks and five weeks after the initial administration of a drug. The photographic images of the renal tissue were observed only five weeks after the initial administration.

[2] = system: glomerulonephritis model rats in inflammatory stage; assay: Glomerulonephritis model rats, inflammatory stage, oral administration
Method: (§1) Eight-week-old male WKY rats (Charles River Japan Inc.) were administered intravenously with rabbit anti-rat glomerular basement membrane antiserum to induce glomerulonephritis. […] The frequency of the administration was twice a day for beraprost sodium and captopril and once a day for prednisolone. After the initial administration of a drug, urinary total protein excretion (which is a measure of renal functions) was determined.

[3] = system: glomerulonephritis model rats in renal failure stage; assay: Glomerulonephritis model rats, renal failure stage, oral administration
Method: as §1

[4] = system: ⅚ nephrectomized rat model; assay: ⅚ nephrectomized rat model: observation of renal tissue images (histopathological change); type: in vivo, Wistar rats; conditions: for Framework: Infiltration of mononuclear cells / Renal corpuscle: Cellular filling in glomerulus / Renal corpuscle: Coagulation of glomeruli in Bowman's capsule / Renal corpuscle: Deposition of PAS + materials in Bowman's capsule / Renal corpuscle: Epidermal growth in Bowman's capsule / Renal corpuscle: Glomerular hypertrophy / Renal corpuscle: Glomerulosclerosis / Uriniferous tuble: Basophilic degeneration of tubules / Uriniferous tuble: Proliferation of proximal tubules / Uriniferous tuble: Proteinaceous urinary casts / Uriniferous tuble: Tubular dilation: number of animals with change in 8 animals per group, five weeks after initial administration
Method: The effect of beraprost sodium on a ⅚ nephrectomized rat model, which has been widely used as a model animal for renal failure, was examined. Two-thirds of the left kidney was removed from each of 4-week-old male Wistar rats (Charles River Japan Inc.) with a razor, and all of the right kidney was then removed therefrom one week after. Three weeks after the initial surgery, blood was collected from each rat through the tail vein and serum creatinine and BUN levels were determined from the blood. At this point of time, the urine was also collected for 24 hours to determine the mass of proteins in the urine. The rats were allocated to one of the treatment groups by the stratifying continuous randomization method based on the mass of proteins in the urine and the body weight (n=8 per group). There was observed little difference in the initial values of blood creatinine and BUN values among the rats. Three weeks after the initial surgery, beraprost sodium or captopril (SIGMA, i.e., a positive control) was orally administered to each rat twice a day everyday, beginning the day on which administration of a drug was started and continued through five weeks after the administration. The determination of the renal functions was performed both three weeks and five weeks after the initial administration of a drug. The photographic images of the renal tissue were observed only five weeks after the initial administration. […] Five weeks after the initial administration, more exacerbation of chronic renal failure was observed. […] The same tendency was shown five weeks after the initial administration (Table 2).

[5] = system: renal failure rat models of which the primary disease is glomerulonephritis; assay: Renal failure rat models of which the primary disease is glomerulonephritis, subcutaneous osmotic pump; type: in vivo, WKY rats
Excerpt: Renal failure rat models of which the primary disease was glomerulonephritis were used to examine the effect of different 4,8-inter-m-phenylene prostaglandin I2 derivatives including beraprost sodium on the models. […] Two weeks after the induction, blood was collected from each rat through the tail vein to determine blood creatinine and BUN levels. […] Four types of 4,8-inter-m-phenylene prostaglandin I2 derivatives in total, including beraprost sodium, were individually administered subcutaneously to the rats from the back continuously with an osmotic pump (ALZET) for one week, beginning two weeks after induction of glomerulonephritis and continued through three weeks after the induction. The renal functions (i.e., blood creatinine and BUN levels) were determined one week after the initial administration of a drug.

[6] = 100 μg/kg oral twice a day, five weeks after the administration of a drug
[7] = 100 μg/kg oral twice a day, three weeks after the administration of a drug
[8] = 300 μg/kg oral twice a day, five weeks after the administration of a drug
[9] = 300 μg/kg oral twice a day, three weeks after the administration of a drug
[10] = 60 μg/kg group, 2 weeks after induction (before administration)
[11] = 60 μg/kg s.c. osmotic pump, 3 weeks after induction (1 week after the initial administration)
[12] = 200 μg/kg group, 2 weeks after induction (before administration)
[13] = 200 μg/kg s.c. osmotic pump, 3 weeks after induction (1 week after the initial administration)

CC#CCC(C)[C@H](O)/C=C/C1[C@H](O)C[C@@H]2Oc3c(CCCC(=O)[O-])cccc3[C@H]12.[Na+] (mixture of isomers) [Beraprost sodium, beraprost sodium]
Blood urea nitrogen [1, 6]: 45.5 ± 3.3 mg/dL | Creatinine clearance [1, 6]: 156.9 ± 19.5 μl/min/100 gBW | Urinary protein excretion [1, 6]: 276.5 ± 69.2 mg/24 hr/kgBW | Urinary volume [1, 6]: 21.7 ± 3.1 ml/24 hr | Blood urea nitrogen [1, 7]: 55.9 ± 3.7 mg/dL | Creatinine clearance [1, 7]: 134.1 ± 11.0 μl/min/100 gBW | Urinary protein excretion [1, 7]: 125.3 ± 20.8 mg/24 hr/kgBW | Urinary volume [1, 7]: 20.1 ± 2.8 ml/24 hr | Blood urea nitrogen [1, 8]: 45.1 ± 3.5 mg/dL | Creatinine clearance [1, 8]: 143.5 ± 10.0 μl/min/100 gBW | Urinary protein excretion [1, 8]: 197.1 ± 21.1 mg/24 hr/kgBW | Urinary volume [1, 8]: 20.4 ± 1.7 ml/24 hr | Blood urea nitrogen [1, 9]: 50.9 ± 3.6 mg/dL | Creatinine clearance [1, 9]: 136.4 ± 9.9 μl/min/100 gBW | Urinary protein excretion [1, 9]: 154.4 ± 53.0 mg/24 hr/kgBW | Urinary volume [1, 9]: 20.4 ± 3.7 ml/24 hr | Effect on urinary protein level, creatinine clearance and BUN level (in words) ([1]; three weeks after the initial administration, same tendency five weeks after): significant prevention of increase in the urinary protein level and prevention of reduction in the creatinine clearance and increase in the BUN level | Urinary total protein excretion ([2]; 300 μg/kg oral twice a day, 7 days after induction (1 week after initial administration)): 17 ± 7 mg/24 hr | Increase in urinal total protein excretion (in words) ([2]; day 1 through day 7 after induction): markedly prevented | Urinary total protein excretion ([3]; 300 μg/kg group, renal failure stage Exp. 1, 2 weeks after induction (before administration)): 374 ± 21 mg/24 hr | Urinary total protein excretion ([3]; 300 μg/kg group, renal failure stage Exp. 2, 2 weeks after induction (before administration)): 321 ± 23 mg/24 hr | Urinary total protein excretion ([3]; 300 μg/kg oral twice a day, renal failure stage Exp. 1, 3 weeks after induction (1 week after initial administration)): 300 ± 51 mg/24 hr | Urinary total protein excretion ([3]; 300 μg/kg oral twice a day, renal failure stage Exp. 2, 4 weeks after induction (2 week after initial administration)): 295 ± 46 mg/24 hr | Increase in urinal total protein excretion (in words) ([3]; renal failure stage, two weeks through four weeks after induction): markedly prevented | Framework: Infiltration of mononuclear cells ([4]; 100 μg/kg): 7 | Renal corpuscle: Cellular filling in glomerulus ([4]; 100 μg/kg): 7 | Renal corpuscle: Coagulation of glomeruli in Bowman's capsule ([4]; 100 μg/kg): 2 | Renal corpuscle: Deposition of PAS + materials in Bowman's capsule ([4]; 100 μg/kg): 2 | Renal corpuscle: Epidermal growth in Bowman's capsule ([4]; 100 μg/kg): 1 | Renal corpuscle: Glomerular hypertrophy ([4]; 100 μg/kg): 3 | Renal corpuscle: Glomerulosclerosis ([4]; 100 μg/kg): 2 | Uriniferous tuble: Basophilic degeneration of tubules ([4]; 100 μg/kg): 8 | Uriniferous tuble: Proliferation of proximal tubules ([4]; 100 μg/kg): 8 | Uriniferous tuble: Proteinaceous urinary casts ([4]; 100 μg/kg): 5 | Uriniferous tuble: Tubular dilation ([4]; 100 μg/kg): 8 | Framework: Infiltration of mononuclear cells ([4]; 300 μg/kg): 7 | Renal corpuscle: Cellular filling in glomerulus ([4]; 300 μg/kg): 4 | Renal corpuscle: Coagulation of glomeruli in Bowman's capsule ([4]; 300 μg/kg): 1 | Renal corpuscle: Deposition of PAS + materials in Bowman's capsule ([4]; 300 μg/kg): 1 | Renal corpuscle: Epidermal growth in Bowman's capsule ([4]; 300 μg/kg): 1 | Renal corpuscle: Glomerular hypertrophy ([4]; 300 μg/kg): 2 | Renal corpuscle: Glomerulosclerosis ([4]; 300 μg/kg): 1 | Uriniferous tuble: Basophilic degeneration of tubules ([4]; 300 μg/kg): 8 | Uriniferous tuble: Proliferation of proximal tubules ([4]; 300 μg/kg): 8 | Uriniferous tuble: Proteinaceous urinary casts ([4]; 300 μg/kg): 2 | Uriniferous tuble: Tubular dilation ([4]; 300 μg/kg): 8 | Progress of the glomerular conditions (renal tissue images, in words) ([4]; five weeks after the initial administration): markedly prevented | BUN [5, 10]: 28 ± 3 mg/dL | Blood creatinine [5, 10]: 0.61 ± 0.07 mg/dL | BUN [5, 11]: 31 ± 2 mg/dL | Blood creatinine [5, 11]: 0.48 ± 0.04 mg/dL | BUN [5, 12]: 30 ± 3 mg/dL | Blood creatinine [5, 12]: 0.62 ± 0.06 mg/dL | BUN [5, 13]: 25 ± 1 mg/dL | Blood creatinine [5, 13]: 0.49 ± 0.04 mg/dL | Blood creatinine and BUN levels compared with the control group (in words) ([5]; three weeks after the induction of glomerulonephritis): significantly decreased
